Drawing on paper PMC5681660, “Reduced hepatitis B and D viral entry using clinically applied drugs as novel inhibitors of the bile acid transporter NTCP” (Scientific Reports, 2017), this text covers Ranking score, B-score functional assay and B-score binding assay for 17 compounds.

Assay [1] has as its target T1, human NTCP (Homo sapiens, UniProt Q14973).
T1 sequence (Q14973 1-349): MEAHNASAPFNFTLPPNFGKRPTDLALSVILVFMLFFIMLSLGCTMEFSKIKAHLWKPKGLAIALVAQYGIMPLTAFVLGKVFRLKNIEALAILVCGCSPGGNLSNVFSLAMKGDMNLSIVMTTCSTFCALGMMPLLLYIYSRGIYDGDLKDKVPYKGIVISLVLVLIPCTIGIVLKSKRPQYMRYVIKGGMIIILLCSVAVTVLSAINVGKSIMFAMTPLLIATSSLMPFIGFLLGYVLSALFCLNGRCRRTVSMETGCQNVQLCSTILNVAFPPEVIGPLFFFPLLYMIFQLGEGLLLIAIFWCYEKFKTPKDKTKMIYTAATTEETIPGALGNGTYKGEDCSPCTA
Put plainly: Screening taurocholate uptake assay (96-well, [14C]taurocholate, 10 µM drug). The note with it: for B-score functional assay: 10 µM drug.

The target in assay [2] is T1, human NTCP. Nature of the assay: Screening fluorescent competitive Myrcludex B-FITC binding assay (96-well, 10 µM drug). The note with it: 10 µM drug.
Where [3] appears, read: combined ranking from functional and binding screening assays.
Where [4] appears, read: screen, Myrcludex B-FITC binding.
[5] abbreviates: Prestwick library screen, taurocholate uptake.
The mark [6] stands for this setting: ranking score beside the functional and binding assay B-scores of the screen.
Setting [7] is: Prestwick library screen, Myrcludex B-FITC binding.
Where [8] appears, read: Prestwick library screen, B-score of taurocholate uptake.
Where [9] appears, read: combined ranking from functional and binding assay B-scores.
The mark [10] stands for this setting: Prestwick library screen, B-score of Myrcludex B-FITC binding.

Counter-ions that a name gives are not always drawn.

As for `Cl.Clc1ccc(Cn2c(CN3CCCC3)nc3ccccc32)cc1` [Clemizole hydrochloride], on human NTCP [1] (setting [3]), the Ranking score was determined as 418.626. Also, the B-score functional assay at human NTCP [1] (screen, taurocholate uptake) came to 2.268. Also, the B-score binding assay at human NTCP [2] (setting [4]) was -1.618.

As to `CCCNCC(O)COc1ccccc1C(=O)CCc1ccccc1` (stereo not drawn) [Propafenone hydrochloride], the B-score functional assay at human NTCP [1] (setting [5]) was -0.211. The Ranking score on human NTCP [1] (setting [6]) stood at 771.984. The same compound returned a B-score binding assay on human NTCP [2] (setting [7]) of 2.716.

As for `Clc1ccc(C(Cn2ccnc2)OCc2c(Cl)cccc2Cl)c(Cl)c1` (stereo not drawn) [Isoconazole], on human NTCP [1] (setting [8]), the B-score functional assay is on record as 0.797. The Ranking score at human NTCP [1] (setting [9]) is on record as 1126.41. Also, on human NTCP [2] (setting [10]), the B-score binding assay stood at 2.982.

With `CS(=O)(=O)Nc1ccc([N+](=O)[O-])cc1Oc1ccccc1` [Nimesulide], the Ranking score on human NTCP [1] (setting [3]) worked out at 428.869. For the same compound, on human NTCP [1] (screen, taurocholate uptake), the B-score functional assay is reported as -1.398. For the same compound, the B-score binding assay at human NTCP [2] (setting [4]) turned out to be 0.652.

As to `O=C1NCCN1c1ncc([N+](=O)[O-])s1` [Niridazole], the Ranking score at human NTCP [1] (setting [3]) is 301.174. Besides, the B-score functional assay at human NTCP [1] (screen, taurocholate uptake) is on record as -1.225. The B-score binding assay on human NTCP [2] (setting [4]) is on record as -0.358.

Regarding `Nc1ccc(O)c(C(=O)O)c1` [Mesalamine], the B-score functional assay at human NTCP [1] (setting [5]) is -0.331. The compound further registered a Ranking score at human NTCP [1] (setting [6]) of 739.887. Also, the B-score binding assay on human NTCP [2] (setting [7]) was 2.828.

`CC=CC1=C(C(=O)O)N2C(=O)[C@@H](NC(=O)[C@H](N)c3ccc(O)cc3)[C@H]2SC1` [Cefprozil]: the Ranking score on human NTCP [1] (setting [3]) came out at 364.678. The compound further registered a B-score functional assay at human NTCP [1] (screen, taurocholate uptake) of 0.201. This compound registered a B-score binding assay at human NTCP [2] (setting [4]) of -1.441.

`Cc1ccc(-c2cc(C(F)(F)F)nn2-c2ccc(S(N)(=O)=O)cc2)cc1` [Celecoxib] had a B-score functional assay on human NTCP [1] (setting [5]) of 0.148. Moreover, on human NTCP [1] (setting [6]), the Ranking score is listed as 728.485. The same compound registered a B-score binding assay at human NTCP [2] (setting [7]) of 0.033.

With `C[N+]1(CCCCC[N+]2(C)CCCC2)CCCC1.O=C([O-])C(O)C(O)C(=O)O.O=C([O-])C(O)C(O)C(=O)O` [Pentolinium bitartrate], the Ranking score at human NTCP [1] (setting [3]) was 451.889. The compound further came in with a B-score functional assay at human NTCP [1] (screen, taurocholate uptake) of -0.089. The compound also showed a B-score binding assay at human NTCP [2] (setting [4]) of -0.512.

`Br.COc1ccc2c(c1)[C@]13CCCC[C@@H]1[C@H](C2)N(C)CC3.O` had a B-score functional assay at human NTCP [1] (setting [8]) of 0.044. In addition, at human NTCP [1] (setting [9]), the Ranking score was found to be 928.917. Also, the B-score binding assay at human NTCP [2] (setting [10]) turned out to be 2.674.

As for `Nc1[nH]c(=O)ncc1F` [Flucytosine], the Ranking score at human NTCP [1] (setting [3]) is 352.224. Moreover, at human NTCP [1] (screen, taurocholate uptake), the B-score functional assay is recorded as -1.554. This compound had a B-score binding assay on human NTCP [2] (setting [4]) of 0.063.

At human NTCP [1] (setting [8]), `C#C[C@]1(O)CC[C@H]2[C@@H]3[C@H](C)CC4=C(CCC(=O)C4)[C@H]3CC[C@@]21C` [Tibolone] gave a B-score functional assay of 0.613. The Ranking score at human NTCP [1] (setting [9]) was 930.923. The compound also showed a B-score binding assay at human NTCP [2] (setting [10]) of 0.535.

In the case of `Cc1ccc(C(=O)c2ccc(CC(=O)O)n2C)cc1` [Tolmetin sodium salt dihydrate], on human NTCP [1] (setting [8]), the B-score functional assay stood at 0.203. Further, the Ranking score at human NTCP [1] (setting [9]) is 996.915. The compound further returned a B-score binding assay on human NTCP [2] (setting [10]) of 2.458.

In turn, `COc1ccc2c(c1)c(CC(=O)OCC(=O)O)c(C)n2C(=O)c1ccc(Cl)cc1` [Acemetacin] registered a B-score functional assay on human NTCP [1] (setting [5]) of 0.011. The Ranking score at human NTCP [1] (setting [6]) stood at 813.791. The compound also showed a B-score binding assay on human NTCP [2] (setting [7]) of 0.865.

Take `CCC(Cc1c(I)cc(I)c(N)c1I)C(=O)O` (stereo not drawn) [Iopanoic acid]: the Ranking score at human NTCP [1] (setting [3]) was determined as 395.161. On human NTCP [1] (screen, taurocholate uptake), this compound gave a B-score functional assay of -1.985. The B-score binding assay at human NTCP [2] (setting [4]) is 1.953.

For `CNC1(C)C2CCC(C2)C1(C)C` (stereo not drawn) [Mecamylamine hydrochloride], the Ranking score at human NTCP [1] (setting [3]) stood at 340.338. The same compound returned a B-score functional assay at human NTCP [1] (screen, taurocholate uptake) of -0.591. The compound further registered a B-score binding assay on human NTCP [2] (setting [4]) of -0.663.

On to `C=CC(N)CCC(=O)O` (stereo not drawn) [Vigabatrin], for which, at human NTCP [1] (setting [5]), the B-score functional assay was -0.08. At human NTCP [1] (setting [6]), the Ranking score is reported as 730.208. For the same compound, the B-score binding assay at human NTCP [2] (setting [7]) is 0.671.
